# Experimental data published in patent US8623924B2, “Compositions and methods for modulating metabolic pathways” (Nusirt Sciences, Inc., priority 2011, dated 2014).
# Marks after values point to notes of the source that are not given here.
# Assays:
# IL-6 = assay: Inflammatory biomarker IL-6 in diet-induced obese mice; assay type: in vivo; conditions: 6 weeks on diet, low resveratrol 12.5 mg/kg diet, low HMB 2 g CaHMB/kg diet, high HMB 10 g CaHMB/kg diet, leucine 2.42% of diet
# [1] = Body weight, weight gain and visceral adiposity in diet-induced obese mice; assay type: in vivo; conditions: 6 weeks on diet, low resveratrol 12.5 mg/kg diet, low HMB 2 g CaHMB/kg diet, high HMB 10 g CaHMB/kg diet, leucine 2.42% of diet
# Text: (§1) Six week old male c57/BL6 mice were fed a high-fat diet with fat increased to 45% of energy (Research Diets D12451) for 6 weeks to induce obesity.
# (§2) At the of the treatment period (6 weeks) all animals were humanely euthanized, and blood and tissues collected for further experiments.
# Adipocytes (3T3-L1) = assay: Fatty acid oxidation (3H-palmitate) in 3T3-L1 adipocytes; assay type: cell-based; conditions: high (25 mM) glucose, 4 hours; leucine 0.5 mM, HMB 5 uM, resveratrol 200 nM; vs. control
# Protocol: High glucose medium reduced fatty acid oxidation by 46% (p<0.05).
# Fatty acid oxidation was measured using ^3H-labeled palmitate oxidation, with the ^3H label trapped as water as a result of the fat oxidation. The ^3H was then measured via scintillation counter.
# [2] = MicroPET/CT glucose and palmitate uptake in diet-induced obese mice; assay type: in vivo; conditions: 6 weeks on diet, low resveratrol 12.5 mg/kg diet, low HMB 2 g CaHMB/kg diet, high HMB 10 g CaHMB/kg diet, leucine 2.42% of diet
# Text: as §1
# MicroPET/CT (Glucose and Palmitate Uptake): At the end of the treatment period (6 weeks of treatment) subgroups of each treatment diet group (5 animals/group, 35 animals total) were used to measure whole body glucose and palmitate uptake via PET/CT Imaging. To visualize these compounds using microPET imaging, the glucose or palmitate was labeled with fluorine-18 (108 mins half life) or carbon-11 (20 mins half life), respectively. Each mouse was fasted for 4 hours, then anesthetized using 1-3% isoflurane delivered by nose cone or in a mouse-sized induction chamber purpose-built for small animal imaging protocols. While under anesthesia the mice were injected iv with <2 mCi of each tracer, then be left for a period of time (minutes to up ˜1 hour) to allow the uptake of the tracer. During the scan, mice were kept warm using a thermostatically controlled heated bed and were treated with ophthalmic ointment prior to scanning. Following the live scan the mice were returned to their cage and revived. Mice were monitored constantly during this time. Following live data acquisition the mice were sacrificed by isoflurane overdose and organs harvested for further experiments.
# [3] = test system: myotube mitochondrial biogenesis; assay: Myotube mitochondrial biogenesis (NAO binding), Example 1; assay type: cell-based; conditions: assessed fluorometrically via NAO binding
# Protocol: We next investigated the role of intact leucine (0-0.5 mM) vs. its metabolites, α-ketoisocaproic acid (KIC) (0-0.5 mM) and HMB (0-50 μM). […] Both leucine and HMB increased myotube mitochondrial biogenesis (assessed fluorometrically via NAO binding) by ˜50%, (p<0.005, FIG. 3).
# Adiponectin = Adiponectin in diet-induced obese mice; assay type: in vivo; conditions: 6 weeks on diet, low resveratrol 12.5 mg/kg diet, low HMB 2 g CaHMB/kg diet, high HMB 10 g CaHMB/kg diet, leucine 2.42% of diet
# C-reactive protein = assay: Inflammatory biomarker C-reactive protein in diet-induced obese mice; assay type: in vivo; conditions: 6 weeks on diet, low resveratrol 12.5 mg/kg diet, low HMB 2 g CaHMB/kg diet, high HMB 10 g CaHMB/kg diet, leucine 2.42% of diet
# [4] = test system: PGC-1α, NRF-1 and UCP3 genes; assay: Expression of mitochondrial regulatory and component genes; assay type: cell-based
# [5] = Indices of insulin sensitivity (plasma glucose, insulin, HOMAIR) in diet-induced obese mice; assay type: in vivo; conditions: 6 weeks on diet, low resveratrol 12.5 mg/kg diet, low HMB 2 g CaHMB/kg diet, high HMB 10 g CaHMB/kg diet, leucine 2.42% of diet
# Text: Insulin sensitivity can be measured using a variety of techniques, including HOMAIR. HOMAIR, which is the homeostasis model assessment of insulin resistance can be used as a screening index of changes in insulin sensitivity. HOMAIR can be calculated via standard formula from fasting plasma insulin and glucose as follows: HOMAIR=[Insulin (uU/mL)×glucose (mM)]/22.5.
# as §1, §2
# Sirt1 = target: T1, Sirt1 (Mus musculus, UniProt Q923E4); assay: Adipose tissue Sirt1 activity in diet-induced obese mice; assay type: in vivo; conditions: low dose of resveratrol, HMB, or their combinations with HMB or leucine (FIG. 10)
# T1 construct: from tissue; host or cells: adipose tissue of c57/BL6 mice
# T1 sequence (Q923E4 1-737): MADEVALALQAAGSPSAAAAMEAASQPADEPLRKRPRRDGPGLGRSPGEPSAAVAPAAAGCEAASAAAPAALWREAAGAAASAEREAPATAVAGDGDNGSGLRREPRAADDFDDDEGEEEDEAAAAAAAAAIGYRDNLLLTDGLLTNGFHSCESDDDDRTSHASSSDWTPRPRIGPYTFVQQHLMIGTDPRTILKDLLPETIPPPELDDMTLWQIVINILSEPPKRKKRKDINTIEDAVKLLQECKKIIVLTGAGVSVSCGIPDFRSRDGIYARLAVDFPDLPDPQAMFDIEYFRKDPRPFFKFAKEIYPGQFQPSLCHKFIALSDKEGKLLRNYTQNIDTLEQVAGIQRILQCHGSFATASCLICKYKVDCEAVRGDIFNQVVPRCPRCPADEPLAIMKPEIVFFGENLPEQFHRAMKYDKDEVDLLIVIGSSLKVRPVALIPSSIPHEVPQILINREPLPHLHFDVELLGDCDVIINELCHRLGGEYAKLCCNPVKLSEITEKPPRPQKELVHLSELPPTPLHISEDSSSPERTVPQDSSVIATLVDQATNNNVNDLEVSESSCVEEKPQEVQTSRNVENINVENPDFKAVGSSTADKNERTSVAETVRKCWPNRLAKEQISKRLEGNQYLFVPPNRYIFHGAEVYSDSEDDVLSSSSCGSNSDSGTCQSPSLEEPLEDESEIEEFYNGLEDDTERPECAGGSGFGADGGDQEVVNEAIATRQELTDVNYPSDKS
smiles,measurement,setting,value
CC(C)(O)CC(=O)O [HMB],IL-6 (pg/mL),IL-6,19.9 ± 3.1^a pg/mL
same,Visceral Adipose Volume (mm^3),[1],6184 ± 460^a mm^3
same,Weight (g),[1],40.3 ± 2.1^a g
same,Weight gain,[1],22.5 ± 1.2 g
same,"increase in fatty acid oxidation, high glucose",Adipocytes (3T3-L1),29%
same,Fat oxidation (PET palmitate uptake; Muscle SUV),[2],1.90 ± 0.29^a SUV
same,Muscle Glucose Uptake (18F-deoxyglucose SUV),[2],2.99 ± 0.42^a SUV
same,increase in myotube mitochondrial biogenesis,[3],~50%
same,Adiponectin (ng/mL),Adiponectin,11.1 ± 1.6^a ng/mL
same,C-reactive protein,C-reactive protein,98.6 ± 5.1 ng/mL
same,expression of mitochondrial regulatory (PGC-1α and NRF-1) and component (UCP3) genes,[4],stimulated expression
same,HOMAIR,[5],1.93 ± 0.32^a
same,Glucose (mM),[5]; plasma,4.28 ± 0.49^a mM
same,Insulin (μU/mL),[5]; plasma,8.3 ± 1.1^a μU/mL
same,adipose tissue Sirt1 activity,Sirt1,Neither resveratrol nor HMB exerted significant independent effects
